According to US6057359A, “Spontaneously dispersible concentrates comprising esters of baccatin-III compounds having antitumor and antiviral activity” (Marigen S.A., priority 1997, dated 2000):

Experiments:
LEUKEMIA DAUDI-LINE = assay: Vitality/proliferation test (Tritium), leukemia Daudi-line; assay type: cell-based, human; details: controls 23'090 cpm
Description: (§1) 4.0 Comparative assays with human tumor cell lines
(§2) VITALITY TEST/1%-MARIGENOL-CONCENTRATE
(§3) 1 × 10^4 cells per well
(§4) Proliferation test (Tritium: 1 μCi/well H^+)

[1] = system: Py6 cells (Virus transformed 3T3 mouse-fibroblasts); assay: Test of cell toxicity / cytotoxicity of MARIGENOL concentrates on Py6 cells (plaque assay, serial dilution); assay type: cell-based; details: for in dilution active up to 1: (microemulsion ME 1:100): dilution of ME 1:100, given in Mio.
Protocol: A biological assay system using microtiter plates and serial dilutions has been developed. Batches of 10^4 tumour cells per ml were set up in culture medium RPMI 1640 and inactivated with 10% of fetal calf serum (GIBCO); they are spread at a density low enough to enable them to grow during the assay, in non-confluent monolayers. Samples are added after 6 to 24 hours, with 100 μl per row, to which 100 μl of medium are added in the first well. Half of this mixture is withdrawn, transferred into the next well and again treated with 100 μl of medium, etc.
[…] They are then stained and fixed using 0.1% crystal violet (Fluka, Buchs) in a solution of 70% of methanol, 1% of formaldehyde and 29% of water. The samples are evaluated under the microscope, magnification 300×. The greatest cytotoxic dilution is determined. The samples can also be evaluated quantitatively by means of scanning and absorption measurement in a spectrophotometer.
N.B.: On the subject of the eternalized Py6-cells cf.: "Biochemistry", Coordinating Editor Geoffrey L. Zubay, Addison-Wesley Publishing Company, 1983, p.1079.

[2] = cited from earlier work
LEUKEMIA K 562 = assay: Vitality/proliferation test (Tritium), leukemia K 562; assay type: cell-based, human; details: controls 50'037 cpm
Description: as §1, §2, §3, §4

VERO cells = assay: Cell lysis in VERO cell layers; assay type: cell-based, African green monkey; details: dilution 1:1'000; plaque reduction table
Protocol: (§5) The antiviral/virucidal efficacy against HSV of an aqueous microemulsion prepared with appropriate MARIGENOL®-concentrates was assessed on a confluent monolayer culture of VERO cells (i.e. "African green monkey kidney cells"). The host cells were pretreated during 3 h at 4° C. with an inventive microemulsion or with culture medium alone and then infected with HSV at a constant dose of 10^4 plaque forming units (PFU). After virus absorption during 1 h, and subsequent addition of 2% methylcellulose in order to limit virus spreading, cells were cultured in MEM medium+2% foetal calf serum for 48 h, then fixed and stained with 1% crystal violet in methanol. The reduction of viral titre was expressed as percent reduction of plaques of lysis observed in pre-treated cells, compared to controls.

[3] = Micellar size by dynamic light scattering; assay type: physicochemical; details: aqueous emulsion 1:100 of 1%-concentrate; DLS
Description: [Measurement conducted with QLS=quasi-elastic, dynamic light scattering; tests performed at the Federal Institute for Technology, Zurich, Institute for Polymers (Prof. Dr. Pier Luigi LUISI and Prof. Dr. Peter SCHURTENBERGER)]. See: "Mode-selective dynamic light scattering; theory versus experimental realization", Thomas Gisler, et al., Applied Optics/Vol. 34, No. 18/Jun. 20, 1995, pp. 3546-3553.
Measurement conducted with aqueous emulsions 1:100 (CMC-marginal value for a homogenous spreading of the surfactants), prepared from the 1%-concentrates. Method: dynamic light scattering (DLS) in 3 angular positions each (60°, 90° and 120°), and with 10 single measurements taken each time. The instrument is a specially equipped "Fiberoptic Spectrometer" of the Institute for Polymers. Description of the method and the instrument, see: "Mode-selective dynamic light scattering: theory versus experimental realization". Thomas Gisler et al., Applied Optics/Vol. 34, No. 18/Jun. 20, 1995.

[4] = system: Herpes-Virus (Herpes Simplex, HSV); assay: Antiviral/virucidal efficacy against HSV, plaque reduction in VERO cells; assay type: cell-based; details: compared to simple medium, 2880 min
Protocol: as §5
Infection was also detected by IFA at 24 h after inoculation, using a Mab specific for a glycoprotein common to HSV-1/HSV-2 (clone FQ 12, Argene Biosoft, BIOLINE, Torino).
The following test substances were assessed as concentrates in aqueous dilution (starting with a microemulsion 1:100): […]

human CMV-strain AD169 = assay: Virucidal efficacy on human cytomegalovirus (immunofluorescence); assay type: cell-based; details: control 15'000
Protocol: The assay was conducted with human, embryonic Lung Fibroblasts as host cells, which were then infected with the human CMV-strain AD169.
The virus strain was incubated during 4 h at +4° C. with varying concentrations of the test substance C16:0 -β-Sitosteryl ester, formulated as a 1%-concentrate and diluted to aqueous microemulsions 10^-3, 10^-4 and 10^-5. It was subsequently inoculated on monolayers of human embryonic lung fibroblasts (which are very susceptible to the CMV-virus). These host cells were grown in shell vials in minimal essential medium (MEM, GIBCO, Life Technologies), containing 10% fetal calf serum. A confluent culture was raised with 120,000 cells per shell-vial. The infection was effected by means of centrifugation during 45 minutes at 1'500 rpm at RT. Thereafter, the injection-suspension was eliminated and 1 ml medium MEM+2% FCS was added (same medium as before). The infected cell culture was maintained during 20 h at 37° C., in a 5%-CO2 -atmosphere. […]
Quantification of the virucidal effect was measured with an immunofluorescence assay. […]
This is followed by 3 washing operations with PBS and a second incubation with the fluorescence-marked antibody IgG goat anti-IgG mouse. […]
The number of IEA-positive cells was recorded. The nuclei which were positive against the CMV-specific antigen were counted by means of the fluorescence microscope, magnification 25×, in aqueous phase.

[5] = system: HIV isolates from patients (strains 21/4 and 4/5); assay: Effect on HIV infectivity, residual HIV titre (direct antiviral efficacy); assay type: cell-based; details: mean titre of 2 strains, 3 h, +4° C.
Protocol: Aliquote amounts of two HIV isolates from patients (strains 21/4 and 4/5) resuspended in complete RPMI medium at a titre of 300 CCID50 /ml were incubated during 3 hours, +4° C. with MARIGENOL®-concentrate, in the form of an aqueous microemulsion, at concentrations ranging from 10^-2 to 10^-5 in complete medium, as well as with ("empty") carrier concentrate and with medium alone as controls.
After pre-incubation, residual HIV titre was assessed by the CCID50 method (Cell-culture infecting dose 50%). Briefly, serial twofold dilutions were prepared from each of the six virus suspensions, and 200 μl of each dilution were incubated for 90 minutes with MT-4 cell pellets prepared as stated before (see 7.1). At the end of incubation, pellets were brought to initial cell concentration by adding appropriate amounts of complete RPMI medium to each tube, whose content was then distributed into 8 wells of a flat-bottom microtitre plate in 200 μl volumes, each vertical row coresponding to a dilution. After 5 days of incubation, cell viability was assessed by the MTT test as stated above, and the HIV titre was expressed as the reciprocal of that dilution which infects 4 out of 8 wells (50%) in a row. A well was considered infected when its O.D. readout at 550 nm was lower than the average readout of 8 control wells minus 2.8 times the standard error of the mean (lower 95% confidence limit).

HIV strain III B = assay: Protective effect on MT-4 host cells against HIV infection (MTT); assay type: cell-based; details: stock ultramicroemulsions, 10^-3 to 10^-4, concentration not stated
Protocol: MT4-cells (an immortalized T-cell line highly sensitive to HIV cytopathoge-nic effect, CPE) of a 24 h-old culture were suspended at a concentration of 2×10^5 /ml, divided into 1.2 ml aliquotes in polypropylene tubes, and pelleted by centrifugation. Pellets were either infected with 200 μl of a stock solution of HIV strain III B (Titre: 600 CCID50 /ml), or mock-infected with plain medium, for 90 min. at 37° C, upon which 1 ml of plain medium was added to each tube, restoring initial cell concentration and bringing HIV concentration to 100 CCID50 /ml. [CCID50 /ml=50% cell culture infective dose].
100 μl volumes of the MARIGENOL®-Concentrates to be tested, diluted to aqueous microemulsions 10^-3 and then further diluted from 10^-3 to […] in RPMI 1640 medium, or of plain medium, were added in triplicate to flat-bottom, 96-well microtitre plates. […]
Cultures were incubated at 37° C., in a humified atmosphere of 5% CO2 +95% air. Five days after infection, 100 μl of supernatant were removed from each well, and cell viability was assessed by reduction of a methyl-tetrazolium salt (MTT, Sigma, 25 μl/well of a 5 mg/ml solution) in a 2-h incubation test, followed by solubilization with 100 μl DMSO/well and photometric readout of the optical density at 550 nm. Residual cell viability was expressed as percent difference from HIV CPE-control cultures mean readout, considered as zero.

SMILES: CC(=O)O[C@H]1C(=O)[C@@]2(C)[C@H]([C@H](OC(=O)c3ccccc3)[C@]3(O)C[C@H](O)C(C)=C1C3(C)C)[C@]1(OC(C)=O)CO[C@@H]1C[C@@H]2O [BACCATIN III-A.S., Baccatin-III]
- Proliferation test % (LEUKEMIA DAUDI-LINE; 10^-3): 3.0%
- Proliferation test cpm (LEUKEMIA DAUDI-LINE; 10^-3): 708 cpm
- Proliferation test % (LEUKEMIA DAUDI-LINE; 10^-4): 3.4%
- Proliferation test cpm (LEUKEMIA DAUDI-LINE; 10^-4): 795 cpm
- Proliferation test % (LEUKEMIA DAUDI-LINE; 10^-5): 61.4%
- in dilution active up to 1: (calculated on active substance content, A.S.) ([1]; 24 h exposure): 12.8 Mio.
- in dilution active up to 1: (calculated on active substance content, A.S.) ([1]; 48 h exposure): 12.8 Mio.
- in dilution active up to 1: (calculated on active substance content, A.S.) ([1]; 72 h exposure): 100 Mio.
- in dilution active up to 1: (microemulsion ME 1:100) ([1]; 72 h exposure): 1 Mio.
- solubility in water [2]: very low
- Proliferation test % (LEUKEMIA K 562; 10^-3): 1.3%
- Proliferation test cpm (LEUKEMIA K 562; 10^-3): 680 cpm
- Proliferation test % (LEUKEMIA K 562; 10^-4): 1.5%
- Proliferation test cpm (LEUKEMIA K 562; 10^-4): 757 cpm
- Proliferation test % (LEUKEMIA K 562; 10^-5): 6.3%

SMILES: C=CCCCCCCCCC(=O)Oc1cc(OC(=O)CCCCCCCCC=C)c2c(=O)c(OC(=O)CCCCCCCCC=C)c(-c3ccc(OC(=O)CCCCCCCCC=C)c(OC(=O)CCCCCCCCC=C)c3)oc2c1 [QUERCETIN-PENTA-UNDECENOATE, Quercetin-penta-10-undecenoate]
- in dilution active up to 1: (calculated on active substance content, A.S.) ([1]; 24 h exposure): 25.6 Mio.
- in dilution active up to 1: (calculated on active substance content, A.S.) ([1]; 48 h exposure): 100 Mio.
- in dilution active up to 1: (microemulsion ME 1:100) ([1]; 48 h exposure): 1 Mio.
- in dilution active up to 1: (calculated on active substance content, A.S.) ([1]; 72 h exposure): 200 Mio.
- in dilution active up to 1: (microemulsion ME 1:100) ([1]; 72 h exposure): 2 Mio.
- Cell-Lysis (VERO cells): Cell-Lysis
- MICELLAR SIZE in nm [3]: 2-3 nm
- Percent reduction of plaques in VERO cell monolayers ([4]; dilution 1:10'000): 48%
- Percent reduction of plaques in VERO cell monolayers ([4]; dilution 1:100'000): 0%

SMILES: CCCCCCCC/C=C\CCCCCCCC(=O)Oc1ccc2c(c1)CC[C@@H]1[C@@H]2CC[C@]2(C)[C@@H](OC(=O)CCCCCCC/C=C\CCCCCCCC)CC[C@@H]12 [β-ESTRADIOL-DI-OLEATE]
- MICELLAR SIZE in nm [3]: 2-3 nm

SMILES: CCCCCCCCCCCCCCCC(=O)O[C@H]1CC[C@@]2(C)C(=CC[C@H]3[C@@H]4CC[C@H]([C@H](C)CC[C@@H](CC)C(C)C)[C@@]4(C)CC[C@@H]32)C1 [β-SITOSTERYL-PALMITATE, 3β-Stigmast-5-en-3-palmitate]
- Number of the positive nuclei (anti P-72 antigens) (human CMV-strain AD169; microemulsion 1:1'000 = 1'000 ppm concentrate): 0
- Number of the positive nuclei (anti P-72 antigens) (human CMV-strain AD169; microemulsion 1:10'000 = 100 ppm concentrate): 2
- Cell-Lysis (VERO cells): Cell-Lysis
- RESIDUAL HIV TITRE (CCID50) ([5]; concentrate 1'000 ppm, active substance 10 ppm): 2 CCID50
- RESIDUAL HIV TITRE (CCID50) ([5]; concentrate 10 ppm, active substance 0.1 ppm): 120 CCID50
- RESIDUAL HIV TITRE (CCID50) ([5]; concentrate 50 ppm, active substance 0.5 ppm): 76 CCID50
- RESIDUAL HIV TITRE (CCID50) ([5]; concentrate 100 ppm, active substance 1 ppm): 50 CCID50
- Percent reduction of plaques in VERO cell monolayers ([4]; dilution 1:10'000): 24%
- Percent reduction of plaques in VERO cell monolayers ([4]; dilution 1:100'000): 0%

SMILES: CCCCCC(=O)O[C@H]1CC[C@@]2(C)C(=CC[C@H]3[C@@H]4CC[C@H]([C@H](C)CC[C@@H](CC)C(C)C)[C@@]4(C)CC[C@@H]32)C1 [β-Sitosteryl-Caproylate]
- protective action on MT-4 cells against HIV (HIV strain III B): very remarkable results
- protective action on MT-4 cells against HIV (HIV strain III B; listed as β-Sitosterypl-Caproylate): Similar, though less remarkable results
